Data taken from US7070965B1, “Small molecule anticancer compounds and related production process” (priority 1998, dated 2006).

Key:
[1] = system: Human leukemia cell line K562; test: MTT assay, inhibition of cell growth; assay type: cell-based; details: for Inhibitory rate (%) on cell growth: 24 hours, dissolved with 10% ethanol, listed as extracted iso-C15
Protocol: (§1) MTT assay was performed to test the cytotoxicity. The K562 and SGC7901 cells were maintained in exponential growth in RPMI 1640 medium supplemented with 15% heat-inactivated newborn calf serum. The cells were plated at a density of 2×10^4 cells/100 μl medium/well into 96-well plate with medium containing samples in five final concentrations (7.5, 15, 30, 60 and 90 μg/ml) for iso-C15 (either synthesized or extracted) and one final concentration (30 μg/ml) for the others. The media in control wells contained no samples. The cells were incubated at 37° C. in a highly humidified incubator under 5% CO2 atmosphere for 24 hours. The supernatant was removed by fast inversion of the plate. 20 μl of 5 mg/ml MTT solution were added into each well. Incubation was continued for 4 hours. DMSO 100 μl/well was added and the plate was vibrated for 10 minutes. A570nm was read at the Immunoreader BioTek EL311S.
(§2) The inhibition rate (%)=1−(mean A570nm in test wells/mean A570nm in control wells)

[2] = system: human gastric cancer cell line SGC7901; test: MTT assay, inhibition of cell growth; assay type: cell-based; details: dissolved with 10% ethanol; for Inhibitory rate (%) on cell growth: 24 hours, listed as extracted iso-C15
Protocol: as §1, §2

[3] = system: DMBA-induced mammary cancer; test: Chemoprevention of DMBA-induced mammary carcinogenesis in rats; assay type: in vivo, Sprague-Dawley rats; details: 0.5 ml of 0.7% solution intragastric, five times a week, twenty weeks after DMBA
Protocol: 13-methyltetradecanoic acid (iso-C15) was prepared by dissolving in NaOH solution and then in 0.35% Tween 80 with pH 7.5.
Fifty female Sprague-Dawley rats were maintained on laboratory chow. At 50 days of age, rats were given a single dose (5 mg) of DMBA (Sigma Chemical Co., St. Louis. Mo.) via an intragastric tube. Seven days after DMBA administration, the rats were randomly divided into two groups of 25. Each rat in the control group was given 0.5 ml of 0.35% Tween 80 five times a week via an intragastric tube throughout the experiment, while each in the test group was given 0.5 ml iso-C15 solution of concentration 0.7%, five times a week. Food and water were available ad libitum. Twenty weeks after DMBA administration, all rats were scarified, and all palpable tumors were removed.

[4] = system: DU145 cancer cells; test: In situ cell death detection, POD; assay type: cell-based, human; details: 60 μg/ml, 8 hours
Text: In Situ Cell Death Detection Kit, POD (Mannheim Boehringer GmbH) was used to detect the individual apoptotic cells. Cleavage of genomic DNA during apoptosis may yield double-stranded, low molecular weight DNA fragments as well as single strand breaks in high molecular weight DNA. Those DNA strand breaks can be identified by labeling free 3′-OH termini with modified nucleotides in an enzymatic reaction. In this kit terminal deoxynucleotidyl transferase (TdT) is used to label free 3′-OH ends in genomic DNA with fluorescein-dUTP. The incorporated fluorescein is visualized under fluorescence microscope directly. The incorporated fluorescein can also bind to anti-fluorescein antibody POD and be detected by substrate reaction. Stained cells can be analyzed under light microscope.
H1688, K-562 and DU145 human cancer cells and normal human PBLs were added with POD and incubated 30 min at 37° C., washed three times with PBS, then reacted with substrate AEC and incubated for 10 min at room temperature. The cells were analyzed under light microscope. […] It is evidenced that iso-C15 induces apoptosis of cancer cells but not normal human cells.

[5] = system: DU-145 human prostate carcinoma cell lines; test: Apoptosis morphology, H&E, light microscope; assay type: cell-based; details: 60 μg/ml, 8 hours
Protocol: Human cancer cell lines DU-145 (prostate cancer), K562 (leukemia), HCT116 (colon cancer), H1688 (lung cancer), SUN423 (hepatocarcinoma), MCF7 (breast cancer), CRL-1687 (pancreatic cancer), and SUN-1 (gastric cancer) were obtained from American Type Culture Collection (ATCC). 30 ml blood was collected from a health person and normal peripheral mononuclear cells were separated by Ficoll separation solution (Sigma). All cells were maintained in RPMI 1640, DMEM, or McCoy medium supplemented with 10% FCS, […] streptomycin and 100 u/ml penicillin. Normal human peripheral mononuclear cells, K562 and SUN-1 were suspended cells. After spinning at 1,500 RPM for 5 min, supernatants were discharged and cells were resuspended and expended in fresh medium. The other tumor cell lines were adherent cells and were dispersed with 0.05% trypsin/0.01% EDTA (Irvine Scientific, CA) for expansion. Cells were seeded in T75 flasks at 2×10^6 cells/flask in culture medium supplemented with 10% fetal bovine serum and incubated overnight at 37° C. with 5% CO2. The adherent cells attached to the plate were striped with disposable cell scrapers (Fisher Scientific) after treated either with 1% iso-C15, anteiso-C15 or control solution for 1, 2, 4, 8 and 24 hours and then combined with respective float cells. […]

CC(C)CCCCCCCCCCCC(=O)O [iso-C15, 13-methyltetradecanoic acid]
Inhibitory rate (%) on cell growth ([1]; 7.5 μg/ml): 27.1% | Inhibitory rate (%) on cell growth ([1]; 15 μg/ml): 51.2% | Inhibitory rate (%) on cell growth ([1]; 30 μg/ml): 72.2% | Inhibitory rate (%) on cell growth ([1]; 60 μg/ml): 83.7% | Inhibitory rate (%) on cell growth ([1]; 90 μg/ml): 87.2% | inhibition at 7.5 µg/mL ([1]; Homo sapiens, K562, 24 h, read-out: Inhibitory rate (%) on cell growth, 7.5 μg/ml, dissolved with 10% ethanol): 26.2% | inhibition at 15 µg/mL ([1]; Homo sapiens, K562, 24 h, read-out: Inhibitory rate (%) on cell growth, 15 μg/ml, dissolved with 10% ethanol): 50.1% | inhibition at 30 µg/mL ([1]; Homo sapiens, K562, 24 h, read-out: Inhibitory rate (%) on cell growth, 30 μg/ml, dissolved with 10% ethanol): 71.6% | inhibition at 60 µg/mL ([1]; Homo sapiens, K562, 24 h, read-out: Inhibitory rate (%) on cell growth, 60 μg/ml, dissolved with 10% ethanol): 83.1% | inhibition at 90 µg/mL ([1]; Homo sapiens, K562, 24 h, read-out: Inhibitory rate (%) on cell growth, 90 μg/ml, dissolved with 10% ethanol): 85.3% | Inhibitory rate (%) on cell growth ([2]; 15 μg/ml): 28.1% | Inhibitory rate (%) on cell growth ([2]; 30 μg/ml): 51.2% | Inhibitory rate (%) on cell growth ([2]; 60 μg/ml): 62.1% | Inhibitory rate (%) on cell growth ([2]; 90 μg/ml): 68.8% | inhibition at 15 µg/mL ([2]; Homo sapiens, SGC-7901, 24 h, 15 μg/ml, read-out: Inhibitory rate (%) on cell growth): 27.5% | inhibition at 30 µg/mL ([2]; Homo sapiens, SGC-7901, 24 h, 30 μg/ml, read-out: Inhibitory rate (%) on cell growth): 50.5% | inhibition at 60 µg/mL ([2]; Homo sapiens, SGC-7901, 24 h, 60 μg/ml, read-out: Inhibitory rate (%) on cell growth): 63.1% | inhibition at 90 µg/mL ([2]; Homo sapiens, SGC-7901, 24 h, 90 μg/ml, read-out: Inhibitory rate (%) on cell growth): 68.4% | No. of rats with tumors ([3]; 25 rats): 3 | Mean tumor weight [3]: 0.8 ± 1.3 g | No. of tumors [3]: 4 | No. of tumors per rat [3]: 0.2 ± 0.1 | No. of tumors/tumor bearing rat [3]: 1.3 ± 0.5 | tumor incidence [3]: 12% | apoptotic cells stained, POD [4]: Some stained apoptotic DU145 cancer cells were shown | morphological changes indicative of apoptosis [5]: membrane blebs were noted
